Measurements published in patent US8802597B2, “Herbicidal pyrimidines” (E I du Pont de Nemours and Company, priority 2003, dated 2014).

Legend:
Format in all cases: in vivo
[1] = tested on: spanishneedles (Bidens bipinnata); assay: Test G pre/postemergence; settings: Preemergence
Outline: (§1)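 Pre- and postemergence greenhouse test; compound in non-phytotoxic solvent/surfactant mix. Post timing: 2–18 cm plants, 1- to 4-leaf. Visual rating vs controls at 12–21 d, 0 (no effect) to 100 (complete control).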

[2] = tested on: catchweed bedstraw (galium; Galium aparine); assay: Test D pre/postemergence; settings: scale 0 to 100 (100 = complete control)
Outline: (§2)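 Visual injury score, 0–100 (0 = no effect, 100 = complete control), vs untreated controls after 15–25 d in controlled environment. Pre- and postemergence treatments run in parallel; postemergence at 1–4 leaf, 2–18 cm. Compounds in non-phytotoxic solvent with surfactant.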

[3] = tested on: wild buckwheat (Polygonum convolvulus); assay: Test D pre/postemergence; settings: scale 0 to 100 (100 = complete control)
Outline: as §2

[4] = tested on: Russian thistle (Salsola kali); assay: Test D pre/postemergence; settings: scale 0 to 100 (100 = complete control)
Outline: as §2

[5] = tested on: wild mustard (Sinapis arvensis); assay: Test D pre/postemergence; settings: scale 0 to 100 (100 = complete control)
Outline: as §2

[6] = tested on: lambsquarters (Chenopodium album); assay: Test D pre/postemergence; settings: scale 0 to 100 (100 = complete control)
Outline: as §2

kochia (Kochia scoparia) = assay: Test D pre/postemergence; settings: scale 0 to 100 (100 = complete control)
Outline: as §2

[7] = tested on: wheat (Triticum aestivum); assay: Test D pre/postemergence; settings: scale 0 to 100 (100 = complete control)
Outline: as §2

[8] = tested on: common purslane (Portulaca oleracea); assay: Test G pre/postemergence; settings: Preemergence
Outline: as §1

[9] = tested on: purple nutsedge (Cyperus rotundus); assay: Test G pre/postemergence; settings: Preemergence
Outline: as §1

[10] = tested on: common sowthistle (Sonchus oleraceous); assay: Test G pre/postemergence; settings: Preemergence
Outline: as §1

SMILES: COC(=O)c1nc(C2CC2)nc(N)c1Cl [Compound 9, methyl 6-amino-5-chloro-2-cyclopropyl-4-pyrimidinecarboxylate]
- Plant response rating, Spanishneedles ([1]; 62 g ai/ha, scale 0-100): 100
- Plant response rating, Spanishneedles ([1]; 125 g ai/ha, scale 0-100): 100
- Plant response rating, Spanishneedles ([1]; 250 g ai/ha, scale 0-100): 100
- Plant response rating, Spanishneedles ([1]; 500 g ai/ha, scale 0 to 100): 100
- Plant response rating, Galium ([2]; Postemergence, 16 g ai/ha): 100
- Plant response rating, Galium ([2]; Postemergence, 31 g ai/ha): 100
- Plant response rating, Galium ([2]; Postemergence, 62 g ai/ha): 100
- Plant response rating, Galium ([2]; Postemergence, 125 g ai/ha): 100
- Plant response rating, Galium ([2]; Preemergence, 16 g ai/ha): 85
- Plant response rating, Galium ([2]; Preemergence, 31 g ai/ha): 100
- Plant response rating, Galium ([2]; Preemergence, 62 g ai/ha): 100
- Plant response rating, Galium ([2]; Preemergence, 125 g ai/ha): 100
- Plant response rating, Buckwheat, Wild ([3]; Postemergence, 16 g ai/ha): 65
- Plant response rating, Buckwheat, Wild ([3]; Postemergence, 31 g ai/ha): 80
- Plant response rating, Buckwheat, Wild ([3]; Postemergence, 62 g ai/ha): 100
- Plant response rating, Buckwheat, Wild ([3]; Postemergence, 125 g ai/ha): 100
- Plant response rating, Buckwheat, Wild ([3]; Preemergence, 16 g ai/ha): 60
- Plant response rating, Buckwheat, Wild ([3]; Preemergence, 31 g ai/ha): 85
- Plant response rating, Buckwheat, Wild ([3]; Preemergence, 62 g ai/ha): 100
- Plant response rating, Buckwheat, Wild ([3]; Preemergence, 125 g ai/ha): 100
- Plant response rating, Russian Thistle ([4]; Postemergence, 16 g ai/ha): 65
- Plant response rating, Russian Thistle ([4]; Postemergence, 31 g ai/ha): 90
- Plant response rating, Russian Thistle ([4]; Postemergence, 62 g ai/ha): 100
- Plant response rating, Russian Thistle ([4]; Postemergence, 125 g ai/ha): 100
- Plant response rating, Russian Thistle ([4]; Preemergence, 16 g ai/ha): 100
- Plant response rating, Russian Thistle ([4]; Preemergence, 31 g ai/ha): 100
- Plant response rating, Russian Thistle ([4]; Preemergence, 62 g ai/ha): 100
- Plant response rating, Russian Thistle ([4]; Preemergence, 125 g ai/ha): 100
- Plant response rating, Mustard, Wild ([5]; Postemergence, 16 g ai/ha): 65
- Plant response rating, Mustard, Wild ([5]; Postemergence, 31 g ai/ha): 80
- Plant response rating, Mustard, Wild ([5]; Postemergence, 62 g ai/ha): 80
- Plant response rating, Mustard, Wild ([5]; Postemergence, 125 g ai/ha): 95
- Plant response rating, Mustard, Wild ([5]; Preemergence, 16 g ai/ha): 60
- Plant response rating, Mustard, Wild ([5]; Preemergence, 31 g ai/ha): 70
- Plant response rating, Mustard, Wild ([5]; Preemergence, 62 g ai/ha): 85
- Plant response rating, Mustard, Wild ([5]; Preemergence, 125 g ai/ha): 85
- Plant response rating, Lambsquarters ([6]; Postemergence, 16 g ai/ha): 95
- Plant response rating, Lambsquarters ([6]; Postemergence, 31 g ai/ha): 100
- Plant response rating, Lambsquarters ([6]; Postemergence, 62 g ai/ha): 100
- Plant response rating, Lambsquarters ([6]; Postemergence, 125 g ai/ha): 100
- Plant response rating, Lambsquarters ([6]; Preemergence, 16 g ai/ha): 65
- Plant response rating, Lambsquarters ([6]; Preemergence, 31 g ai/ha): 100
- Plant response rating, Lambsquarters ([6]; Preemergence, 62 g ai/ha): 100
- Plant response rating, Lambsquarters ([6]; Preemergence, 125 g ai/ha): 100
- Plant response rating, Kochia (kochia (Kochia scoparia); Postemergence, 16 g ai/ha): 85
- Plant response rating, Kochia (kochia (Kochia scoparia); Postemergence, 31 g ai/ha): 100
- Plant response rating, Kochia (kochia (Kochia scoparia); Postemergence, 62 g ai/ha): 100
- Plant response rating, Kochia (kochia (Kochia scoparia); Postemergence, 125 g ai/ha): 100
- Plant response rating, Kochia (kochia (Kochia scoparia); Preemergence, 16 g ai/ha): 70
- Plant response rating, Kochia (kochia (Kochia scoparia); Preemergence, 31 g ai/ha): 98
- Plant response rating, Kochia (kochia (Kochia scoparia); Preemergence, 62 g ai/ha): 100
- Plant response rating, Kochia (kochia (Kochia scoparia); Preemergence, 125 g ai/ha): 100
- Plant response rating, Wheat ([7]; Postemergence, 16 g ai/ha): 50
- Plant response rating, Wheat ([7]; Postemergence, 31 g ai/ha): 80
- Plant response rating, Wheat ([7]; Postemergence, 62 g ai/ha): 90
- Plant response rating, Wheat ([7]; Postemergence, 125 g ai/ha): 100
- Plant response rating, Wheat ([7]; Preemergence, 16 g ai/ha): 60
- Plant response rating, Wheat ([7]; Preemergence, 31 g ai/ha): 75
- Plant response rating, Wheat ([7]; Preemergence, 62 g ai/ha): 75

SMILES: CCOC(=O)c1nc(C2CC2)nc(N)c1Cl [Compound 4, ethyl 6-amino-5-chloro-2-cyclopropyl-4-pyrimidinecarboxylate]
- Plant response rating, Purslane ([8]; 62 g ai/ha, scale 0-100): 60
- Plant response rating, Purslane ([8]; 125 g ai/ha, scale 0-100): 100
- Plant response rating, Purslane ([8]; 250 g ai/ha, scale 0-100): 100
- Plant response rating, Purslane ([8]; 500 g ai/ha, scale 0 to 100): 100
- Plant response rating, Nutsedge, Purple ([9]; 62 g ai/ha, scale 0-100): 40
- Plant response rating, Nutsedge, Purple ([9]; 125 g ai/ha, scale 0-100): 100
- Plant response rating, Nutsedge, Purple ([9]; 250 g ai/ha, scale 0-100): 100
- Plant response rating, Nutsedge, Purple ([9]; 500 g ai/ha, scale 0 to 100): 100
- Plant response rating, Sowthistle ([10]; 62 g ai/ha, scale 0-100): 100
- Plant response rating, Sowthistle ([10]; 125 g ai/ha, scale 0-100): 100
- Plant response rating, Sowthistle ([10]; 250 g ai/ha, scale 0-100): 100
- Plant response rating, Sowthistle ([10]; 500 g ai/ha, scale 0 to 100): 100
- Plant response rating, Spanishneedles ([1]; 62 g ai/ha, scale 0-100): 100
- Plant response rating, Spanishneedles ([1]; 125 g ai/ha, scale 0-100): 100
- Plant response rating, Spanishneedles ([1]; 250 g ai/ha, scale 0-100): 100
- Plant response rating, Spanishneedles ([1]; 500 g ai/ha, scale 0 to 100): 100
- Plant response rating, Galium ([2]; Postemergence, 16 g ai/ha): 100
- Plant response rating, Galium ([2]; Postemergence, 31 g ai/ha): 100
- Plant response rating, Galium ([2]; Postemergence, 62 g ai/ha): 100
- Plant response rating, Galium ([2]; Postemergence, 125 g ai/ha): 100
- Plant response rating, Galium ([2]; Preemergence, 16 g ai/ha): 90
- Plant response rating, Galium ([2]; Preemergence, 31 g ai/ha): 100
- Plant response rating, Galium ([2]; Preemergence, 62 g ai/ha): 100
- Plant response rating, Galium ([2]; Preemergence, 125 g ai/ha): 100
- Plant response rating, Buckwheat, Wild ([3]; Postemergence, 16 g ai/ha): 80
- Plant response rating, Buckwheat, Wild ([3]; Postemergence, 31 g ai/ha): 85
- Plant response rating, Buckwheat, Wild ([3]; Postemergence, 62 g ai/ha): 100
- Plant response rating, Buckwheat, Wild ([3]; Postemergence, 125 g ai/ha): 100
- Plant response rating, Buckwheat, Wild ([3]; Preemergence, 16 g ai/ha): 60
- Plant response rating, Buckwheat, Wild ([3]; Preemergence, 31 g ai/ha): 80
- Plant response rating, Buckwheat, Wild ([3]; Preemergence, 62 g ai/ha): 100
- Plant response rating, Buckwheat, Wild ([3]; Preemergence, 125 g ai/ha): 100
- Plant response rating, Russian Thistle ([4]; Postemergence, 16 g ai/ha): 80
- Plant response rating, Russian Thistle ([4]; Postemergence, 31 g ai/ha): 90
- Plant response rating, Russian Thistle ([4]; Postemergence, 62 g ai/ha): 100
- Plant response rating, Russian Thistle ([4]; Postemergence, 125 g ai/ha): 100
- Plant response rating, Russian Thistle ([4]; Preemergence, 16 g ai/ha): 90
- Plant response rating, Russian Thistle ([4]; Preemergence, 31 g ai/ha): 100
- Plant response rating, Russian Thistle ([4]; Preemergence, 62 g ai/ha): 100
- Plant response rating, Russian Thistle ([4]; Preemergence, 125 g ai/ha): 100
- Plant response rating, Mustard, Wild ([5]; Postemergence, 16 g ai/ha): 65
- Plant response rating, Mustard, Wild ([5]; Postemergence, 31 g ai/ha): 65
- Plant response rating, Mustard, Wild ([5]; Postemergence, 62 g ai/ha): 75
- Plant response rating, Mustard, Wild ([5]; Postemergence, 125 g ai/ha): 90
- Plant response rating, Mustard, Wild ([5]; Preemergence, 16 g ai/ha): 65
- Plant response rating, Mustard, Wild ([5]; Preemergence, 31 g ai/ha): 85
- Plant response rating, Mustard, Wild ([5]; Preemergence, 62 g ai/ha): 85
- Plant response rating, Mustard, Wild ([5]; Preemergence, 125 g ai/ha): 85
- Plant response rating, Lambsquarters ([6]; Postemergence, 16 g ai/ha): 95
- Plant response rating, Lambsquarters ([6]; Postemergence, 31 g ai/ha): 100
- Plant response rating, Lambsquarters ([6]; Postemergence, 62 g ai/ha): 100
- Plant response rating, Lambsquarters ([6]; Postemergence, 125 g ai/ha): 100
- Plant response rating, Lambsquarters ([6]; Preemergence, 16 g ai/ha): 70
- Plant response rating, Lambsquarters ([6]; Preemergence, 31 g ai/ha): 80
- Plant response rating, Lambsquarters ([6]; Preemergence, 62 g ai/ha): 100
- Plant response rating, Lambsquarters ([6]; Preemergence, 125 g ai/ha): 100
- Plant response rating, Kochia (kochia (Kochia scoparia); Postemergence, 16 g ai/ha): 85
- Plant response rating, Kochia (kochia (Kochia scoparia); Postemergence, 31 g ai/ha): 100
- Plant response rating, Kochia (kochia (Kochia scoparia); Postemergence, 62 g ai/ha): 100
- Plant response rating, Kochia (kochia (Kochia scoparia); Postemergence, 125 g ai/ha): 100
- Plant response rating, Kochia (kochia (Kochia scoparia); Preemergence, 16 g ai/ha): 85
- Plant response rating, Kochia (kochia (Kochia scoparia); Preemergence, 31 g ai/ha): 100
- Plant response rating, Kochia (kochia (Kochia scoparia); Preemergence, 62 g ai/ha): 100
- Plant response rating, Kochia (kochia (Kochia scoparia); Preemergence, 125 g ai/ha): 100
- Plant response rating, Wheat ([7]; Postemergence, 16 g ai/ha): 80
- Plant response rating, Wheat ([7]; Postemergence, 31 g ai/ha): 85
- Plant response rating, Wheat ([7]; Postemergence, 62 g ai/ha): 100
- Plant response rating, Wheat ([7]; Postemergence, 125 g ai/ha): 100
- Plant response rating, Wheat ([7]; Preemergence, 31 g ai/ha): 70
- Plant response rating, Wheat ([7]; Preemergence, 62 g ai/ha): 80
- Plant response rating, Wheat ([7]; Preemergence, 125 g ai/ha): 80
